In US8940756B2, “Dihydronaphthyridines and related compounds useful as kinase inhibitors for the treatment of proliferative diseases” (Deciphera Pharmaceuticals, Inc., priority 2012, dated 2015) one finds IC50 data, which are given here for 23 compounds.

Experiment [1] addresses Phospho-KIT (Tyr719) in GIST48 cells (Homo sapiens, UniProt P10721). Nature of the experiment: GIST48 KIT Western Blot. Type of experiment: cell-based. The note with it: 4 hours, read-out: pKIT suppression by western blot analysi GIST48. How it is done:
(§1) GIST48, GIST430, and GIST882 cells were obtained from J. Fletcher (Brigham and Women's Hospital, Boston, Mass.). GIST T1 cells were obtained from B. Rubin (Cleveland Clinic, Cleveland, Ohio) and Professor Takahiro Taguchi (Kochi Medical School, Nankoku, Kochi, Japan). […] GIST430 cells were grown in Ham's F10 medium supplemented with 15% characterized fetal bovine serum (Invitrogen, Carlsbad, Calif.), 30 mg/L bovine pituitary extract (BD Biosciences, San Jose, Calif.), 0.5% Mito+ serum extender (BD Biosciences, San Jose, Calif.), 1 unit/mL penicillin G, 1 μg/ml streptomycin, and 0.29 mg/mL L-glutamine at 37° C., 5% CO2, 95% humidity. GIST T1 cells were grown in DMEM medium supplemented with 10% characterized fetal bovine serum (Invitrogen, Carlsbad, Calif.), 1 unit/mL penicillin G, 1 ng/ml streptomycin, and 0.29 mg/mL L-glutamine at 37° C., 5% CO2, and 95% humidity. Cells were allowed to expand until reaching 70-95% confluence at which point they were subcultured or harvested for assay use.
(§2) Two hundred fifty thousand cells were added per well in a 24-well tissue-culture treated plate. Cells were then incubated overnight at 37° C., 5% CO2, 95% humidity. Medium was aspirated, cells were washed with PBS, and serum-free RPMI1640 medium was added. A serial dilution of test compound was added to plates containing cells and plates were incubated for 4 hours at 37° C., 5% CO2, 95% humidity. Cells were washed with PBS, then lysed. Cell lysates were separated by SDS-PAGE and transferred to PVDF. Phospho-KIT (Tyr719) was detected using an antibody from Cell Signaling Technology (Beverly, Mass.), ECL Plus detection reagent (GE Healthcare, Piscataway, N.J.) and a Molecular Devices Storm 840 phosphorimager in fluorescence mode. Blots were stripped and probed for total KIT using an antibody from Santa Cruz Biotech (Santa Cruz, Calif.). IC50 values were calculated using Prism software (Graphpad, San Diego, Calif.).

In experiment [2] the target is Phospho-KIT (Tyr719) in GIST430 cells (Homo sapiens, UniProt P10721). Nature of the experiment: GIST430 KIT Western Blot. Type of experiment: cell-based. The note with it: 4 hours, read-out: pKIT suppression by western blot analysi GIST430. As for the experimental part: as §1
as §2, with “One” for “Two”, “Ham's F10” for “RPMI1640”

Bounds are passed on as bounds.

Sequence of Phospho-KIT (Tyr719) in GIST48 cells (P10721 whole entry V560D/D820A, form open): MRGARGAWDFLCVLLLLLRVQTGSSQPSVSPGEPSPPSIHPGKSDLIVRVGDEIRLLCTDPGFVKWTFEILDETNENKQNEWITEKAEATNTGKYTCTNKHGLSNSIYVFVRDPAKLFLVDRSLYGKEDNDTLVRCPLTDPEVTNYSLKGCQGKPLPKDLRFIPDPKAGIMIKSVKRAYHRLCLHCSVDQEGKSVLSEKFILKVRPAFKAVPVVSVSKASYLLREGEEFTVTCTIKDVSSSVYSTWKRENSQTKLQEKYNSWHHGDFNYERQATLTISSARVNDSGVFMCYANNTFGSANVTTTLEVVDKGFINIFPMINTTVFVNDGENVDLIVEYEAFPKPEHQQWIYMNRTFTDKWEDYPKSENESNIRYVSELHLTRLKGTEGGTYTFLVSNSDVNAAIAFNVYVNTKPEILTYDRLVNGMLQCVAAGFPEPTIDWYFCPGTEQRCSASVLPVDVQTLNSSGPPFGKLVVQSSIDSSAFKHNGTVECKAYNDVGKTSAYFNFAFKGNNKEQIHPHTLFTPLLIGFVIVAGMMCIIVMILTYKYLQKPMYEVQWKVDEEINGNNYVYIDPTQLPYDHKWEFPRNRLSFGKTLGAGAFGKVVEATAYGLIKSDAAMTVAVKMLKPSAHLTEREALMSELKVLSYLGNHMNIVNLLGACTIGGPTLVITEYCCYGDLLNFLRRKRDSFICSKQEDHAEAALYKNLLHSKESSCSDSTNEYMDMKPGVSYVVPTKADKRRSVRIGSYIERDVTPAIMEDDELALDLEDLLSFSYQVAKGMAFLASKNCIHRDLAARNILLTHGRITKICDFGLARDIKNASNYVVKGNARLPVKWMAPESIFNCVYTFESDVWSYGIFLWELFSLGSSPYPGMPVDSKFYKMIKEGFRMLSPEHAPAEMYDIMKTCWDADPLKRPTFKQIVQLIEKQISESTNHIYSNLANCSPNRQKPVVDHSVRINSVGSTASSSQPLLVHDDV
Sequence of Phospho-KIT (Tyr719) in GIST430 cells (P10721 with tags, fused parts or gaps DEL560-576/V654A, form open): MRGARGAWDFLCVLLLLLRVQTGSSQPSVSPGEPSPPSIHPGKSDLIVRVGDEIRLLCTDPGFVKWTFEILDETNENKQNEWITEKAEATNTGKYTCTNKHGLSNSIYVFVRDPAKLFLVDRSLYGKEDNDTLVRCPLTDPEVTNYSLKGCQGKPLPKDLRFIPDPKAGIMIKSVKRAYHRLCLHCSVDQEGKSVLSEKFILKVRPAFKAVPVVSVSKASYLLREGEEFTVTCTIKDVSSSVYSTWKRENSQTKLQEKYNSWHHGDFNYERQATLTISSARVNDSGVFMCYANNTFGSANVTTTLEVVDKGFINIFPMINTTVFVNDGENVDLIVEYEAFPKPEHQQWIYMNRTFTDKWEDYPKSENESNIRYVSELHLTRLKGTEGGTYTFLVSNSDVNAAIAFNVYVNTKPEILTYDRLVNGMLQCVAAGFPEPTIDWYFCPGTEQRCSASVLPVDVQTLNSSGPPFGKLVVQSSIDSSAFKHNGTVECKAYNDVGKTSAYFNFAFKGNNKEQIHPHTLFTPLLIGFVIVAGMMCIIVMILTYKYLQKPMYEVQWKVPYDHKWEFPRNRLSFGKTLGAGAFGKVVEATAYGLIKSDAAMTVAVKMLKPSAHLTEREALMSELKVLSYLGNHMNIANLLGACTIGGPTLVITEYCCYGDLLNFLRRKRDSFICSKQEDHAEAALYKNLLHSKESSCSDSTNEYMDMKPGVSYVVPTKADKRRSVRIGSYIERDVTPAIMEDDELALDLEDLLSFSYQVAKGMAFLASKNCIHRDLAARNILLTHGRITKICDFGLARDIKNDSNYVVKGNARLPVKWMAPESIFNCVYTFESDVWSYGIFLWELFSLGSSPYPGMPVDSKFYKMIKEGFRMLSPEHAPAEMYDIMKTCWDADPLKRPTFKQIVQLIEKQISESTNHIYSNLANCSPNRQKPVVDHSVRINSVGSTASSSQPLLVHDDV

In the case of `CCn1c(=O)c(-c2cc(NC(=O)Nc3cccc4ccccc34)c(F)cc2C)cc2cnc(NC)cc21` [Example 1, 1-(5-(1-ethyl-7-(methylamino)-2-oxo-1,2-dihydro-1,6-naphthyridin-3-yl)-2-fluoro-4-methylphenyl)-3-(naphthalen-1-yl)urea], the figures for the IC50 in experiment [1] and in experiment [2] were 10 to 100 nM and less than 10 nM, respectively.
With `CCn1c(=O)c(-c2cc(NC(=O)Nc3cccc(F)c3F)c(F)cc2Cl)cc2cnc(NC)cc21` [Example 4, 1-(4-chloro-5-(1-ethyl-7-(methylamino)-2-oxo-1,2-dihydro-1,6-naphthyridin-3-yl)-2-fluorophenyl)-3-(2,3-difluorophenyl)urea], the IC50 in experiment [1] and in experiment [2] was 10 to 100 nM each time.
On to `CCn1c(=O)c(-c2cc(NC(=O)Nc3cccc4ccccc34)c(F)cc2Cl)cc2cnc(NC)cc21` [Example 6, 1-(4-chloro-5-(1-ethyl-7-(methylamino)-2-oxo-1,2-dihydro-1,6-naphthyridin-3-yl)-2-fluorophenyl)-3-(naphthalen-1-yl)urea], for which the IC50 in experiment [1] and in experiment [2] was less than 10 nM throughout.
Turning to `CNc1cc2c(cn1)cc(-c1cc(NC(=O)Nc3csc4ccccc34)c(F)cc1F)c(=O)n2C` [Example 14, 1-(benzo[b]thiophen-3-yl)-3-(2,4-difluoro-5-(1-methyl-7-(methylamino)-2-oxo-1,2-dihydro-1,6-naphthyridin-3-yl)phenyl)urea], the IC50 in experiment [1] is less than 10 nM; in experiment [2], 10 to 100 nM.
In the same order, the values of `CCn1c(=O)c(-c2cc(NC(=O)Nc3cccc(F)c3)c(F)cc2F)cc2cnc(NC)cc21` [Example 15, 1-(5-(1-ethyl-7-(methylamino)-2-oxo-1,2-dihydro-1,6-naphthyridin-3-yl)-2,4-difluorophenyl)-3-(3-fluorophenyl)urea] are 10 to 100 nM and 10 to 100 nM.
For `CCn1c(=O)c(-c2cc(NC(=O)Nc3ccccc3)c(F)cc2F)cc2cnc(NC)cc21` [Example 16, 1-(5-(1-ethyl-7-(methylamino)-2-oxo-1,2-dihydro-1,6-naphthyridin-3-yl)-2,4-difluorophenyl)-3-phenylurea] the same measures were 100 to 1000 nM and 100 to 1000 nM.
For the compound `CCn1c(=O)c(-c2cc(NC(=O)Nc3cccc(F)c3)c(F)cc2Cl)cc2cnc(N)cc21` [Example 20, 1-(5-(7-amino-1-ethyl-2-oxo-1,2-dihydro-1,6-naphthyridin-3-yl)-4-chloro-2-fluorophenyl)-3-(3-fluorophenyl)urea], the IC50 in experiment [1] lay within 100 to 1000 nM; in experiment [2], 10 to 100 nM.
In the same order, the values of `CNc1cc2c(cn1)cc(-c1cc(NC(=O)Nc3ccccc3)c(F)cc1Cl)c(=O)n2C(C)C` [Example 22, 1-(4-chloro-2-fluoro-5-(1-isopropyl-7-(methylamino)-2-oxo-1,2-dihydro-1,6-naphthyridin-3-yl)phenyl)-3-phenylurea] are 10 to 100 nM and 10 to 100 nM.
For the compound `CCn1c(=O)c(-c2cc(NC(=O)Nc3cccc(F)c3)c(F)cc2Cl)cc2cnc(NC)cc21` [Example 24, 1-[4-chloro-5-(1-ethyl-7-methylamino-2-oxo-1,2-dihydro-[1,6]naphthyridin-3-yl)-2-fluoro-phenyl]-3-(3-fluoro-phenyl)-urea], the IC50 is 10 to 100 nM in experiment [1] and less than 10 nM in experiment [2].
For `CCn1c(=O)c(-c2cc(NC(=O)Nc3ccccc3F)c(F)cc2Cl)cc2cnc(NC)cc21` [Example 25, 1-[4-chloro-5-(1-ethyl-7-methylamino-2-oxo-1,2-dihydro-[1,6]naphthyridin-3-yl)-2-fluoro-phenyl]-3-(2-fluoro-phenyl)-urea] the same measures were 10 to 100 nM and 10 to 100 nM.
As for `CCn1c(=O)c(-c2cc(NC(=O)Nc3ccccc3)c(F)cc2Cl)cc2cnc(NCCOC)cc21` [Example 27, 1-(4-chloro-5-(1-ethyl-7-(2-methoxyethylamino)-2-oxo-1,2-dihydro-1,6-naphthyridin-3-yl)-2-fluorophenyl)-3-phenylurea], the IC50 in experiment [1] and in experiment [2] was 10 to 100 nM each time.
For the compound `CCn1c(=O)c(-c2cc(NC(=O)Nc3cccc(F)c3)c(F)cc2Cl)cc2cnc(NCCOC)cc21` [Example 28, 1-(4-chloro-5-(1-ethyl-7-(2-methoxyethylamino)-2-oxo-1,2-dihydro-1,6-naphthyridin-3-yl)-2-fluorophenyl)-3-(3-fluorophenyl)urea], the IC50 was in the range of 100 to 1000 nM in experiment [1] and 10 to 100 nM in experiment [2].
In the same order, the values of `CCn1c(=O)c(-c2cc(NC(=O)Nc3csc4ccccc34)c(F)cc2Cl)cc2cnc(NC)cc21` [Example 32] are less than 10 nM and less than 10 nM.
For `CCn1c(=O)c(-c2cc(NC(=O)Nc3ccccc3)ccc2Cl)cc2cnc(NC)cc21` [Example 33, 1-(4-chloro-3-(1-ethyl-7-(methylamino)-2-oxo-1,2-dihydro-1,6-naphthyridin-3-yl)phenyl)-3-phenylurea], the IC50 in experiment [2] lay in the range of 10 to 100 nM.
Consider `CCn1c(=O)c(-c2cc(NC(=O)Nc3ccccc3)c(F)cc2F)cc2cnc(NCCOC)cc21` [Example 36, 1-(5-(1-ethyl-7-(2-methoxyethylamino)-2-oxo-1,2-dihydro-1,6-naphthyridin-3-yl)-2,4-difluorophenyl)-3-phenylurea], for which the IC50 in experiment [1] and in experiment [2] was 100 to 1000 nM in each case.
Turning to `CNc1cc2c(cn1)cc(-c1cc(NC(=O)Nc3cccc(F)c3)c(F)cc1C)c(=O)n2C(C)C` [Example 41, 1-(2-fluoro-5-(1-isopropyl-7-(methylamino)-2-oxo-1,2-dihydro-1,6-naphthyridin-3-yl)-4-methylphenyl)-3-(3-fluorophenyl)urea], the IC50 in experiment [1] was in the range of 100 to 1000 nM; in experiment [2], 10 to 100 nM.
For `CCn1c(=O)c(-c2cc(NC(=O)Nc3cccc(F)c3)c(F)cc2C)cc2cnc(NC)cc21` [Example 44, 1-(5-(1-ethyl-7-(methylamino)-2-oxo-1,2-dihydro-1,6-naphthyridin-3-yl)-2-fluoro-4-methylphenyl)-3-(3-fluorophenyl)urea], the IC50 in experiment [1] is 10 to 100 nM; in experiment [2], less than 10 nM.
As for `CCn1c(=O)c(-c2cc(NC(=O)Nc3cccc(F)c3)c(F)cc2Br)cc2cnc(NC)cc21` [Example 50, 1-(4-bromo-5-(1-ethyl-7-(methylamino)-2-oxo-1,2-dihydro-1,6-naphthyridin-3-yl)-2-fluorophenyl)-3-(3-fluorophenyl)urea], the IC50 is 100 to 1000 nM in experiment [1] and less than 10 nM in experiment [2].
In the same order, the values of `CCn1c(=O)c(-c2cc(NC(=O)Nc3ccccc3)c(F)cc2Br)cc2cnc(NCCOC)cc21` [Example 51, 1-(4-bromo-5-(1-ethyl-7-(2-methoxyethylamino)-2-oxo-1,2-dihydro-1,6-naphthyridin-3-yl)-2-fluorophenyl)-3-phenylurea] are 100 to 1000 nM and 10 to 100 nM.
Turning to `CCn1c(=O)c(-c2cc(NC(=O)Nc3ccccc3)c(F)cc2Cl)cc2cnc(NC(C)=O)cc21` [Example 54, 1-(5-(7-acetamido-1-ethyl-2-oxo-1,2-dihydro-1,6-naphthyridin-3-yl)-4-chloro-2-fluorophenyl)-3-phenylurea], the IC50 in experiment [1] and in experiment [2] was 10 to 100 nM in each case.
Turning to `CCn1c(=O)c(-c2cc(NC(=O)Nc3cc(F)cc(F)c3)c(F)cc2Cl)cc2cnc(NC)cc21` [Example 55, 1-(4-chloro-5-(1-ethyl-7-(methylamino)-2-oxo-1,2-dihydro-1,6-naphthyridin-3-yl)-2-fluorophenyl)-3-(3,5-difluorophenyl)urea], the IC50 in experiment [1] is more than 1000 nM; in experiment [2] it was 10 to 100 nM.
Take `CCn1c(=O)c(-c2cc(NC(=O)Nc3ccccc3)c(F)cc2Br)cc2cnc(N)cc21` [Example 57, 1-(5-(7-amino-1-ethyl-2-oxo-1,2-dihydro-1,6-naphthyridin-3-yl)-4-bromo-2-fluorophenyl)-3-phenylurea]: the values for the IC50 in experiment [1] and in experiment [2] were 100 to 1000 nM and 10 to 100 nM, respectively.
`CCn1c(=O)c(-c2cc(NC(=O)Nc3ccccc3)c(F)cc2C)cc2cnc(NC(=O)N3CCC3)cc21` [Example 110, N-(1-ethyl-3-(4-fluoro-2-methyl-5-(3-phenylureido)phenyl)-2-oxo-1,2-dihydro-1,6-naphthyridin-7-yl)azetidine-1-carboxamide]: the IC50 in experiment [1] is less than 10 nM.
